This note sets out measurements from patent US8815879B2, “Substituted 4-(selenophen-2(or-3)-ylamino)pyrimidine compounds and methods of use thereof” (Kasina Laila Innova Pharmaceuticals Private Limited, priority 2010, dated 2014).

pIC50: −log10 of the molar value. “Also recorded” adds a separate entry of the source.

Assay [1] has as its system Human umbilical vein endothelial cells (HUVEC). Briefly: In vitro endothelial capillary formation assay. Particulars: HUVEC on Cultrex, 10 ng/ml FGF, Compound 27 at 0.5, 1.0, 2.5 and 5 μg/ml, 16 h. The assay is classed as cell-based. As to the method:
Human umbilical vein endothelial cells (HUVECs) were laid on Cultrex coated plates in presence of either 10 ng/ml human recombinant Fibroblast Growth Factor (FGF) alone (B) or concomitantly with Compound 27 at 0.5, 1.0, 2.5 and 5 μg/ml C, D, E, and F, respectively. The cells in presence of treatments were allowed to form endothelial capillary tubes for 16 h at 37° C. Panel A represents capillary-like endothelial tube formation in 0.1% DMSO treated vehicle control wells.
In vitro capillary formation assay was performed with Human umbilical vein endothelial cells (HUVEC), cultured on 10 mg/ml basement membrane extract (BME—Cultrex®, R&D Systems, USA) bed. Four hundred microliters of Cultrex was coated at 4° C. in each well of 24-well culture plate and allowed to gel at 37° C. for 1 h. HUVECs were plated at a density of 1×10^5 cells per well with 400 μl of EGM-2 medium (Lonza Walkersville Inc. Walkersville, Md.). The cells were then treated with either 10 ng/ml of Human recombinant Fibroblast Growth Factor (FGF, R&D Systems, Minneapolis, Minn.)) alone or concurrently with different concentrations of Compound 27 for 16 hours. Vehicle control cultures received only 0.1% DMSO. Pictures were taken under a Nikon Eclipse TS 100 microscope equipped with a Nikon Coolpix camera. […] In contrast, FGF promoted human endothelial capillary formation in vitro (FIG. 1).

Assay [2] concerns human lung carcinoma A549 cells. Briefly: MTT based cell proliferation assay, A549. As to conditions: Homo sapiens, A549, 72 h, read-out: Cell Proliferation Inhibition in A549 (Lung carcinoma), IC50.
The test system of assay [3] is human prostate DU145 cells. The assay can be described thus: MTT based cell proliferation assay, DU145. As to conditions: Homo sapiens, DU-145, 72 h, read-out: Cell Proliferation Inhibition in DU145 (Prostate carcinoma), IC50.
For assay [4], the system named is human colorectal carcinoma HT29 cells. The assay can be described thus: MTT based cell proliferation assay, HT29. As to conditions: Homo sapiens, HT-29, 72 h, read-out: Cell Proliferation Inhibition in HT29 (Colon carcinoma), IC50.
Assay [5] deals with HepG2 (Hepatocellular Carcinoma). Briefly: cells. It is filed as cell-based. As to the method: (§1) MTT [3-(4,5-dimethylthiazol-2-yl)-2,5-diphenyltetrazolium bromide] incorporation based cell proliferation assay was performed using standard procedure. […] The assay was carried out according to the instructions provided by the vendor. […] Vehicle control culture wells received only a maximum of 0.5% DMSO. Thereafter, 0.5 mg/ml of MTT reagent was added to each well and the microplate was incubated further for 4 h at 37° C. in presence of 5% CO2. Finally, the cells were solubilized by adding solubilizing solution and allowed to incubate at 37° C. overnight. After complete solubilization of the formazan crystals the absorbance was read at 540 nm in a microplate reader (BioRad, USA).
(§2) The evaluation of cell proliferation inhibitory activities of the compounds was done in two phases—(1) Screening, and (2) half-maximal inhibitory concentration (IC50) determination. In the screening phase, the cells were treated with three different concentrations e.g. 1, 5 and 10 μg/ml.

Assay [6] concerns human cervical carcinoma HeLa cells. The assay can be described thus: cells. It is filed as cell-based. As to the method:
as §1, §2

The test system of assay [7] is human breast carcinoma (estrogen receptor negative) MDA-MB-231 cells. The assay can be described thus: cells. The assay is classed as cell-based. As to the method:
as §1, §2

As for `COc1cc2nc(CN(C)C)nc(Nc3cc(C(C)(C)C)[se]c3C(N)=O)c2cc1OC` [Compound 27], the “inhibition of FGF induced capillary-like endothelial tube formation” value in assay [1] is on record as “inhibits capillary-like endothelial tube formation in vitro; also recorded: inhibited FGF induced capillary formation in a dose dependent manner”; in assay [1] (listed as compound 27), “significantly inhibiting endothelial capillary formation in a dose dependent manner”. Further, the pIC50 in assay [2] was 5.45; in assay [3], 5.53; in assay [4], 5.54; in assay [5] (Homo sapiens, HepG2, MTT, read-out: Cell proliferation inhibition (IC50) in HepG2 (Hepatocellular Carcinoma)), 5.63; in assay [6] (Homo sapiens, HeLa, MTT, read-out: Cell proliferation inhibition (IC50) in HeLa (Cervical Carcinoma)), 5.54; in assay [7] (Homo sapiens, MDA-MB-231, MTT, read-out: Cell proliferation inhibition (IC50) in MDA-MB-231 (Breast Carcinoma)), 5.51. Further, in assay [5] (ratio of IC50 values), the “potency compared to Iressa, HepG2” value is “equally more potent than Iressa”. Moreover, in assay [6] (ratio of IC50 values), the “potency compared to Iressa, HeLa” value is reported as “equally more potent than Iressa”. The “potency compared to Iressa, MDA-MB-231” value in assay [7] (ratio of IC50 values) was “equally more potent than Iressa”.
